The values below come from US6828320B2, “Heterocyclic compounds” (SmithKline Beecham Corporation, priority 1996, dated 2004).

Experiment [1] deals with HB4a cell line transformed by over-expression of c-erbB-2 (Homo sapiens, UniProt P04626). The experiment can be described thus: Cell proliferation assay, HB4a erbB-2. In kind it is cell-based. Here is the method:
The cell proliferation assay uses an immortalised human breast epithelial cell line (HB4a) which has been transformed by over-expression of c-erbB-2. Growth of these cells in low serum is dependent upon the c-erbB-2 tyrosine kinase activity. […] Cells are plated at 3000/ well in 96-well plates in 0.1 ml medium and allowed to attach overnight. test compound is added in 0.1 ml medium, with a final concentration of 0.5% DMSO, and the plates incubated for 4 days at 37° C. The cells are then examined microscopically for evidence of morphological detransformation and cell mass is estimated by staining with methylene blue and measuring the absorbance at 620 nm. […] Activity against a range of naturally occurring EGFr or c-erbB-2 over-expressing human tumour cell lines (BT474-breast, HN5-head and neck, N87-gastric and Calu3-lung) is assessed with selected compounds by the same methodology.

Experiment [2] concerns the target T1, c-erbB-2 (baculovirus expressed, recombinant intracellular domain) (Homo sapiens, UniProt P04626).
T1 construct: baculovirus expressed, recombinant constructs of the intracellular domains of c-erbB-2 and c-erbB-4; made in house
Description: Substrate phosphorylation assay, c-erbB-2. In kind it is biochemical. Here is the method: (§1) The substrate phosphorylation assays use baculovirus expressed, recombinant constructs of the intracellular domains of c-erbB-2 and c-erbB-4 that are constitutively active and EGFr isolated from solubilised A431 cell membranes. The method measures the ability of the isolated enzymes to catalyse the transfer of the γ-phosphate from ATP onto tyrosine residues in a biotinylated synthetic peptide (Biotin-[…]. […] The reaction is stopped by the addition of EDTA (final concentration 0.15 mM) and a sample is transferred to a streptavidin-coated 96-well plate. The plate is washed and level of phosphotyrosine on the peptide is determined using a Europium-labelled antiphosphotyrosine antibody and quantified with a time-resolved fluorescence technique.

The subject of experiment [3] is HB4a cell line transfected with ras. Description: Cell proliferation assay, HB4a ras. In kind it is cell-based, human. As to conditions: Homo sapiens, HB4a, 96 h, read-out: Cell Proliferation HB4a ras.
The target in experiment [4] is T2, c-erbB-4 (baculovirus expressed, recombinant intracellular domain) (Homo sapiens, UniProt Q15303).
T2 construct: baculovirus expressed, recombinant constructs of the intracellular domains of c-erbB-2 and c-erbB-4; made in house
T2 sequence (Q15303 676-1308 limits assumed): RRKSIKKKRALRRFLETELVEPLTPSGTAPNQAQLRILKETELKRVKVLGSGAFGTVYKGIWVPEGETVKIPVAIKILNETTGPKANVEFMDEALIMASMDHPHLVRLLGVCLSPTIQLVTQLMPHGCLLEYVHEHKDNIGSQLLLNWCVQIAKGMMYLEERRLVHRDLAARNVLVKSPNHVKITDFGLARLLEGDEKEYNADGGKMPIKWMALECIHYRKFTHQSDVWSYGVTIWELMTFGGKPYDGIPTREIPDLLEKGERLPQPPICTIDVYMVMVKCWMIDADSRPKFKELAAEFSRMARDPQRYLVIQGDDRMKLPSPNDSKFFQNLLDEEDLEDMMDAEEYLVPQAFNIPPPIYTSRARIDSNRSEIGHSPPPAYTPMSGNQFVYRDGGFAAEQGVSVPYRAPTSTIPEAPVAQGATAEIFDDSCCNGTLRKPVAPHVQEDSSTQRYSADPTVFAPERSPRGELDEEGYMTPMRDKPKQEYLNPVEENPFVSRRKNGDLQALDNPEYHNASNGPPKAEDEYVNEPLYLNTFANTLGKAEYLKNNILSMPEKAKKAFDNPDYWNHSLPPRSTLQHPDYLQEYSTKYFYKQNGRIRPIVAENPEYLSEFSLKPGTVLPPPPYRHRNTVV
Description: Substrate phosphorylation assay, c-erbB-4. In kind it is biochemical. Here is the method:
as §1

The target in experiment [5] is T3, EGFr isolated from solubilised A431 cell membranes (Homo sapiens, UniProt P00533).
T3 construct: EGFr isolated from solubilised A431 cell membranes; endogenous in cells; host or cells: A431 cell membranes (solubilised)
T3 sequence (P00533 25-1210): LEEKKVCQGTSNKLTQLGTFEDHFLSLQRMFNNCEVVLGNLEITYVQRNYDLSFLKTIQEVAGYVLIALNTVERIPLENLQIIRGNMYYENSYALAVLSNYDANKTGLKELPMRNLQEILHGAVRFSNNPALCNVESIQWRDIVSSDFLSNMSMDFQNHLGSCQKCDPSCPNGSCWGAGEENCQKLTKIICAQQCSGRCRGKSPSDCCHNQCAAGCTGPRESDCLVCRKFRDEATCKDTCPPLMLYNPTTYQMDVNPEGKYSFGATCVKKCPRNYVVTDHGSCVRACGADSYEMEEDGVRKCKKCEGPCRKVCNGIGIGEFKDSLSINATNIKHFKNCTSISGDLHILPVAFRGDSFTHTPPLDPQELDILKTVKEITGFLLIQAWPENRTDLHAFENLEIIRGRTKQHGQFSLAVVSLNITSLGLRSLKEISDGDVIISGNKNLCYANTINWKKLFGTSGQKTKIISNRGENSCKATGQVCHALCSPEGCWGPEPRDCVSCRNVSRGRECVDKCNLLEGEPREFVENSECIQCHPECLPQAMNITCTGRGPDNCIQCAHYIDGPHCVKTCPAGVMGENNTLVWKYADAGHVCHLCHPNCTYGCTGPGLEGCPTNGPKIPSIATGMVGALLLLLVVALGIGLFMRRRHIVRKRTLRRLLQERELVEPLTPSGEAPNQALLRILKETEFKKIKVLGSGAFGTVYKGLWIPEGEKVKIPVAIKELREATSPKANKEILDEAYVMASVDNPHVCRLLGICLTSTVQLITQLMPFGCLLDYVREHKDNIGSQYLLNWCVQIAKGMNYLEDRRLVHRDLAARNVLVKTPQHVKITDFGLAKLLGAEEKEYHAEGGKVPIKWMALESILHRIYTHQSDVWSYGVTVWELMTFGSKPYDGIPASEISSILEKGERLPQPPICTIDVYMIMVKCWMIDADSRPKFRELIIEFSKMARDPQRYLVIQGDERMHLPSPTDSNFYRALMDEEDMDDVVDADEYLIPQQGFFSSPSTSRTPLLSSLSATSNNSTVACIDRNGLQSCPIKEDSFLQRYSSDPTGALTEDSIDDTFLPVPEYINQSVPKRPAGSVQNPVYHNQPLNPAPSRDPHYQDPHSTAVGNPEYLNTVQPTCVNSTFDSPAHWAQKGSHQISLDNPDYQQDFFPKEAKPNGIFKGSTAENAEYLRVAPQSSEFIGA
The experiment can be described thus: Substrate phosphorylation assay, EGFr. The class given is biochemical. Here is the method: as §1

[6] abbreviates: 4 days at 37° C., methylene blue staining; read-out: Cell Proliferation HB4a erbB-2.
The mark [7] stands for this setting: read-out: Substrate Phosphorylation erbB-2.
Where [8] appears, read: 4 days at 37° C., methylene blue staining, general toxicity control.
Setting [9] is: 30 minutes, room temperature, ATP and peptide at Km concentrations.

The structures appear in SMILES notation. Where a name gives a salt, the structure may show the parent alone. Read-outs that look alike come from different tables or passages of the source.

T1 sequence (P04626 676-1255 limits assumed): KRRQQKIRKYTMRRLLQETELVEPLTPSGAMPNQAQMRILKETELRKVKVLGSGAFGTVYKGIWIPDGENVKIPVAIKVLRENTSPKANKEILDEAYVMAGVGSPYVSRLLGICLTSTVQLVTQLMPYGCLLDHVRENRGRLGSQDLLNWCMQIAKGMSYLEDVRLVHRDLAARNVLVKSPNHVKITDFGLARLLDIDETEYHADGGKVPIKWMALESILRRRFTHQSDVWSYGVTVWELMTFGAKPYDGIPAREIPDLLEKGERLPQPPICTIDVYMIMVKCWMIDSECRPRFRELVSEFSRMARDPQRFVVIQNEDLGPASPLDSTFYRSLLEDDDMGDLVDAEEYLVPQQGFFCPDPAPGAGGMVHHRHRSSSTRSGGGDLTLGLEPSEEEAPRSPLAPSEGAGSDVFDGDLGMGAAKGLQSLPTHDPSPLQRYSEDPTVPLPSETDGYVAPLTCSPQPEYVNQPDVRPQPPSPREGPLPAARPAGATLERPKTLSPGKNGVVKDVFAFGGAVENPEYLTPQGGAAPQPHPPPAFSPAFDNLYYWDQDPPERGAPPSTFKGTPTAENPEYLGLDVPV
HB4a cell line transformed by over-expression of c-erbB-2, sequence (P04626 whole entry, stated change not applied): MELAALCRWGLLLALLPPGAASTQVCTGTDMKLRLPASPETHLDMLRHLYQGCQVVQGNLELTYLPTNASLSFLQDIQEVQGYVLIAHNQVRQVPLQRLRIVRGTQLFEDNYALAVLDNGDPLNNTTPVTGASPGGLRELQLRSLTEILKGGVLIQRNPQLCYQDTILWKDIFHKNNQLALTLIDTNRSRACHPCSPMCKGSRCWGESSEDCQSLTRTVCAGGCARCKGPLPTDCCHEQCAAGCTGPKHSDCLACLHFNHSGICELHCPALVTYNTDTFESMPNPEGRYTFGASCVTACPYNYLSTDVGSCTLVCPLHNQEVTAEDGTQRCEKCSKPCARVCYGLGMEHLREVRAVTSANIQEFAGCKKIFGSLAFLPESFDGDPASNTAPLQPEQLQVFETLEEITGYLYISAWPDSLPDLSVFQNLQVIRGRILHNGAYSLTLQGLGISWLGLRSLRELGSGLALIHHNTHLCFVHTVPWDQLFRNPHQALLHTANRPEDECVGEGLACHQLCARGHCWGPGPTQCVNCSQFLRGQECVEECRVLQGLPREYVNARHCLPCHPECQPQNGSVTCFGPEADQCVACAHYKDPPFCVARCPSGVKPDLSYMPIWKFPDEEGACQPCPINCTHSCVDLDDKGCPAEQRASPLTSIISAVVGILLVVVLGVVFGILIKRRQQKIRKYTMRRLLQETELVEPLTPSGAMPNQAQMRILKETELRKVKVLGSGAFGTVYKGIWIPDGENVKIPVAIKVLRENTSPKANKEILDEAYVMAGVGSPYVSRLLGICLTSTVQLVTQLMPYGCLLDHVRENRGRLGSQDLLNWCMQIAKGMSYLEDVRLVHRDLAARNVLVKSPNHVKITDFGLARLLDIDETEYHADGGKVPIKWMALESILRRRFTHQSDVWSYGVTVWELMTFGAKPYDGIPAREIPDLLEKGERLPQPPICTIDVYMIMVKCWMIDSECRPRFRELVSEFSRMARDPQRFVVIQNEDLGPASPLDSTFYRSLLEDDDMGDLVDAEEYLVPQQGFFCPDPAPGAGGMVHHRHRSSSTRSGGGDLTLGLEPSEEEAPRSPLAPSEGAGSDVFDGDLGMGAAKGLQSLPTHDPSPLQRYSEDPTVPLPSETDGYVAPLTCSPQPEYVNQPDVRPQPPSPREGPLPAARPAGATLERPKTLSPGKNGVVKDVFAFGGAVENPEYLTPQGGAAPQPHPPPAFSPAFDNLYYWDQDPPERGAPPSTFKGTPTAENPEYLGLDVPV

With `CN(C)CCc1nc(-c2ccc3ncnc(Nc4ccc(OCc5ccccc5)cc4)c3c2)no1` [Example 57, (4-Benzyloxy-phenyl)-(6-(5-(2-dimethylamino-ethyl)-1,2,4-oxadiazol-3-yl)-quinazolin-4-yl)-amine], the GI50 in experiment [1] (setting [6]) came out at 1200 nM. The IC50 turned out to be 83 nM in experiment [2] (setting [7]) and 2700 nM in experiment [3] (setting [8]).
Take `NS(=O)(=O)CCNCc1ccc(-c2ccc3ncnc(Nc4ccc(OCc5ccccc5)cc4)c3c2)o1` [Example 50, 2-((5-(4-(4-Benzyloxy-phenylamino)-quinazolin-6-yl)-furan-2-ylmethyl)-amino)-ethanesulphonic acid amide]: in experiment [1] (setting [6]), the GI50 is 860 nM. Moreover, the IC50 turned out to be 12 nM in experiment [2] (setting [7]), 100 nM in experiment [4] and 7100 nM in experiment [3] (setting [8]).
As for `Cc1nc(-c2ccc3ncnc(Nc4ccc5c(cnn5Cc5ccccc5)c4)c3c2)no1` [Example 61], the GI50 in experiment [1] (setting [6]) was found to be 500 nM. In addition, the IC50 in experiment [5] (setting [9]) is 810 nM; in experiment [3] (setting [8]), 3100 nM.
For `O=Cc1ccc(-c2ccc3ncnc(Nc4ccc(OCc5ccccc5)cc4)c3c2)o1` [Example 9, 5-(4-(4-Benzyloxy-phenylamino)-quinazolin-6-yl)-furan-2-carbaldehyde], in experiment [1] (setting [6]), the GI50 was 550 nM. The IC50 was 24 nM in experiment [2] (setting [7]), 430 nM in experiment [4] and 5700 nM in experiment [3] (setting [8]).
With `CN(C)Cc1nc(-c2ccc3ncnc(Nc4ccc(OCc5ccccc5)cc4)c3c2)no1` [Example 58, (4-Benzyloxy-phenyl)-(6-(5-(dimethylaminomethyl)-1,2,4-oxadiazol-3-yl)-quinazolin-4-yl)-amine], in experiment [1] (setting [6]), the GI50 was found to be 8600 nM. Further, the IC50 in experiment [2] (setting [7]) is 6 nM; in experiment [3] (setting [8]), 28000 nM.
In the case of `COC(=O)c1ccc(-c2ccc3ncnc(Nc4ccc(OCc5ccccc5)cc4)c3c2)o1` [Example 51, 5-(4-(4-Benzyloxy-phenylamino)-quinazolin-6-yl)-furan-2-carboxylic acid methyl ester], in experiment [1] (setting [6]), the GI50 amounted to 38000 nM. The figures for the IC50 in experiment [2] (setting [7]), in experiment [4] and in experiment [3] (setting [8]) were 20 nM, 5800 nM and 21000 nM, respectively.
Turning to `Cn1nncc1-c1ccc2ncnc(Nc3ccc(OCc4ccccc4)cc3)c2c1` [Example 8, (4-Benzyloxy-phenyl)-(6-(3-methyl-1,2,3-triazol-4-yl)-quinazolin-4-yl)-amine], the IC50 in experiment [2] (setting [7]) was 150 nM; in experiment [4], > 10000 nM.
With `c1ccc(COc2ccc(Nc3ncnc4ccc(-c5ncccn5)cc34)cc2)cc1` [Example 4, (4-Benzyloxy-phenyl)-(6-(pyrimidin-2-yl)-quinazolin-4-yl)-amine], the values for the IC50 in experiment [2] (setting [7]), in experiment [4] and in experiment [3] (setting [8]) were 35 nM, 6400 nM and 50000 nM, respectively.
As for `CS(=O)(=O)CCNCc1nc(-c2ccc3ncnc(Nc4ccc5c(cnn5Cc5ccccc5)c4)c3c2)no1` [Example 59, (1-Benzyl-1H-indazol-5-yl)-(6-(5-(((2-methanesulphonyl-ethyl)-amino)-methyl)-1,2,4-oxadiazol-3-yl)-quinazolin-4-yl)-amine], the GI50 in experiment [1] (setting [6]) turned out to be 790 nM. The values for the IC50 in experiment [5] (setting [9]) and in experiment [3] (setting [8]) were 11 nM and 11000 nM, respectively.
With `Cc1nc(-c2ccc3ncnc(Nc4ccc(OCc5ccccc5)cc4)c3c2)no1` [Example 56, (4-Benzyloxy-phenyl)-(6-(5-methyl-1,2,4-oxadiazol-3-yl)-quinazolin-4-yl)-amine], in experiment [1] (setting [6]), the GI50 came to 1700 nM. In addition, the IC50 is 260 nM in experiment [2] (setting [7]), > 10000 nM in experiment [4] and > 50000 nM in experiment [3] (setting [8]).
For `Cc1noc(-c2ccc3ncnc(Nc4ccc5c(cnn5Cc5ccccc5)c4)c3c2)n1` [Example 55, (1-Benzyl-1H-indazol-5-yl)-(6-(3-methyl-1,2,4-oxadiazol-5-yl)-quinazolin-4-yl)-amine hydrochloride], the GI50 in experiment [1] (setting [6]) is 2000 nM. Also, the results for the IC50 in experiment [2] (setting [7]), in experiment [4] and in experiment [3] (setting [8]) were 10 nM, 1000 nM and 20000 nM, respectively.
With `Cc1cc(-c2ccc3ncnc(Nc4ccc(OCc5ccccc5)cc4)c3c2)on1` [Example 47, (4-Benzyloxy-phenyl)-(-6-(3-methylisoxazol-5-yl)-quinazolin-4-yl)-amine hydrochloride], the IC50 is 490 nM in experiment [2] (setting [7]) and 5000 nM in experiment [4].
Consider `Cc1nnc(-c2ccc3ncnc(Nc4ccc5c(cnn5Cc5ccccc5)c4)c3c2)[nH]1` [Example 42, (1-Benzyl-1H-indazol-5-yl)-(6-(5-methyl-1,3,4-triazol-2-yl)-quinazolin-4-yl)-amine], for which, in experiment [1] (setting [6]), the GI50 came to 570 nM. Moreover, the IC50 in experiment [2] (setting [7]) was determined as 7 nM; in experiment [3] (setting [8]), 20000 nM.
In the case of `c1ccc(COc2ccc(Nc3ncnc4ccc(-c5ccco5)cc34)cc2)cc1` [Example 1, (4-Benzyloxy-phenyl)-(6-furan-2-yl-quinazolin-4-yl)-amine], the IC50 in experiment [2] (setting [7]) was 40 nM; in experiment [4], 2500 nM.
On to `CS(=O)(=O)NCCNCc1ccc(-c2ccc3ncnc(Nc4ccc(OCc5ccccc5)cc4)c3c2)o1` [Example 49, N-(2-((5-(4-(4-Benzyloxy-phenylamino)-quinazolin-6-yl)-furan-2-ylmethyl)-amino) -ethyl)-methanesulphonamide dihydrochloride], for which, in experiment [1] (read-out: Cell Proliferation HB4a erbB-2; 4 days at 37° C., methylene blue staining), the GI50 was determined as 470 nM. Besides, the IC50 was determined as 33 nM in experiment [2] and 3500 nM in experiment [3].
Turning to `CS(=O)(=O)Cc1nc(-c2ccc3ncnc(Nc4ccc5c(cnn5Cc5ccccc5)c4)c3c2)no1` [Example 60, (1-Benzyl-1H-indazol-5-yl)-(6-(5-methanesulphonylmethyl-1,2,4-oxadiazol-3-yl)-quinazolin-4-yl)-amine], the GI50 in experiment [1] (setting [6]) came to 540 nM. Further, the IC50 in experiment [5] (setting [9]) was 1900 nM; in experiment [3] (setting [8]), 50000 nM.
For the molecule `CS(=O)(=O)CCNC(=O)c1ccc(-c2ccc3ncnc(Nc4ccc(OCc5ccccc5)cc4)c3c2)o1` [Example 53, 5-[4-(4-Benzyloxy-phenylamino)-quinazolin-6-yl]-furan-2-carboxylic acid (2-methanesulphonyl-ethyl)-amide hydrochloride], the GI50 in experiment [1] (setting [6]) was found to be 1800 nM. Moreover, the results for the IC50 in experiment [5] (setting [9]) and in experiment [3] (setting [8]) were 13 nM and 36000 nM, respectively.
As for `CNS(=O)(=O)CCNCc1ccc(-c2ccc3ncnc(Nc4ccc(OCc5ccccc5)cc4)c3c2)o1` [Example 54, 2-((5-(4-(4-Benzyloxy-phenylamino)-quinazolin-6-yl)-furan-2-ylmethyl)-amino)-ethanesulphonic acid methylamide], in experiment [1] (setting [6]), the GI50 is 140 nM. Besides, the IC50 in experiment [2] (setting [7]) came out at 24 nM; in experiment [4] it was 280 nM; in experiment [3] (setting [8]), 7400 nM.
For `Cc1nnc(-c2ccc3ncnc(Nc4ccc5c(cnn5Cc5cc(F)cc(F)c5)c4)c3c2)o1` [Example 31, (1-(3,5-Difluoro-benzyl)-1H-indazol-5-yl)-(6-(5-methyl-1,3,4-oxadiazol-2-yl)-quinazolin-4-yl)-amine hydrochloride], in experiment [1] (setting [6]), the GI50 turned out to be 1100 nM. Moreover, the results for the IC50 in experiment [5] and in experiment [3] (setting [8]) were 9 nM and > 50000 nM, respectively.
Consider `c1ccc(COc2ccc(Nc3ncnc4ccc(-c5ccccn5)cc34)cc2)cc1` [Example 3, (4-Benzyloxy-phenyl)-(6-(pyridin-2-yl)-quinazolin-4-yl)-amine], for which the GI50 in experiment [1] (setting [6]) is 23000 nM. The values for the IC50 in experiment [2] (setting [7]), in experiment [4] and in experiment [3] (setting [8]) were 29 nM, 8600 nM and 16000 nM, respectively.
`Cc1nocc1-c1ccc2ncnc(Nc3ccc(OCc4ccccc4)cc3)c2c1` [Example 85, (4-Benzyloxy-phenyl)-(6-(3-methyl-[1,2]oxazol-4-yl)-quinazolin-4-yl)-amine]: the GI50 in experiment [1] (setting [6]) was determined as 2100 nM. The values for the IC50 in experiment [2] (setting [7]), in experiment [4] and in experiment [3] (setting [8]) were 130 nM, 9700 nM and 2300 nM, respectively.
Turning to `c1ccc(COc2ccc(Nc3ncnc4ccc(-c5nnn[nH]5)cc34)cc2)cc1` [Example 40, (4-Benzyloxy-phenyl)-(6-(1H-tetrazol-5-yl)-quinazolin-4-yl)-amine], in experiment [1] (setting [6]), the GI50 was > 50000 nM. Further, the figures for the IC50 in experiment [2] (setting [7]), in experiment [4] and in experiment [3] (setting [8]) were 3 nM, 970 nM and > 50000 nM, respectively.
With `CN(CCS(C)(=O)=O)Cc1ccc(-c2ccc3ncnc(Nc4ccc(OCc5ccccc5)cc4)c3c2)o1` [Example 48, (4-Benzyloxy-phenyl)-(6-(5-(((2-methanesulphonyl-ethyl)-methyl-amino)-methyl)-furan-2-yl)-quinazolin-4-yl)-amine], the GI50 in experiment [1] (setting [6]) was 80 nM. Further, the IC50 in experiment [2] (setting [7]) was 38 nM; in experiment [4], 1100 nM; in experiment [3] (setting [8]), 9500 nM.
